From patent US20240165056A1, “USE OF TAMOXIFEN AND RELATED COMPOUNDS TO REDUCE BREAST IMPLANT CAPSULE FORMATION AND CAPSULAR CONTRACTURE” (Ohio State Innovation Foundation, priority 2021, published 2024)

Assays:
Type in all cases: in vivo, mice
[1] = tested on: fibrous capsule around silicone implants; test: Silicone breast implant capsule formation in mouse model (H&E, Picro-Sirius Red histology)
Description: (§1) Eight-week-old C57BL/6 or Beige (C57BL/6J-Lyst^bg-J/J) female mice (Jackson Labs, Bar Harbor, ME, USA) (N=10/group) were treated with daily tamoxifen or vehicle injections into the intraperitoneal cavity 1 week before surgery. Tamoxifen injections consisted of 75 mg/kg tamoxifen citrate (Sigma, St. Louis MO, USA) in peanut oil (Sigma, St Louis MO, USA) with 10% ethanol (Sigma, St. Louis MO, USA) to promote dissolution of tamoxifen, while control injections consisted of only peanut oil and ethanol. Daily injections continued until the day of explantation, two weeks after implantation.
(§2) Mice were anesthetized with a standard ketamine/xylazine cocktail. Fur was clipped and skin was prepped with betadine followed by alcohol pads. Silicone prostheses were implanted in the submammary plane, bilaterally, giving a total of 20 implants per experimental group (FIG. 1B). Skin incisions were re-approximated with 6-0 nylon suture (FIG. 1C).
(§3) After 2 weeks, mice were euthanized and the silicone prostheses were removed en bloc with all surrounding tissue, including the overlying skin for orientation (FIG. 1D). […] These samples were excluded from further analysis owing to the potential confounding nature of bacterial contamination on capsule formation.
Explanted silicone pieces and surrounding capsules were fixed overnight in formaldehyde at 4° C. and transitioned to 70% ethanol. Samples were then paraffin embedded and sectioned at 4 μm. Samples were stained with H&E (FIG. 1E) or Picro-Sirius Red. Immunohistochemistry sections were deparaffinized, rehydrated and blocked for endogenous peroxidase activity (3% H2O2 in H2O) and nonspecific background staining (3% normal goat serum in Background Sniper, BioCare Medical, CA, USA). Antigen retrieval was performed with citrate buffer (pH 6.0) or Tris-EDTA (pH 9.0) in a pressure cooker for 10 minutes and slides were incubated for 30 minutes at room temperature with primary antibodies. Primary antibodies (all from Abcam, Cambridge, UK) included α-SMA (ab124964), CD31 (ab28364), CD68 (ab125212), iNOS (ab15323), CD163 (ab182422), Ki67 (ab15580), ER-α (ab271827), and ER-β (ab3576). Primary antibody binding was detected by subsequent incubation with species appropriate biotinylated IgG (Vector Laboratories, CA, USA), followed by streptavidin-horse radish peroxidase (Vector Laboratories, CA, USA) and chromogenic development with 3,3-diaminobenzidine (Vector Laboratories, CA, USA). Tissue sections were counterstained with Gill's hematoxylin (Vector Laboratories, CA, USA), slides were dehydrated and a cover slip was placed. Slides were imaged on a Zeiss Axio Observer Z1 inverted microscope (Zeiss, Germany) and quantified using ImageJ (NIH, USA).
Histology was quantified from H&E slides within the fibrous capsule on the side oriented with overlying skin to maintain consistency and remove potential variability by dissection at explantation.
(§4) All statistical analysis was performed in Prism 8.0 (GraphPad, San Diego, CA, USA). Data was evaluated for outliers using the Grubb's test. Control and tamoxifen-treated groups were compared with unpaired t-tests, except in cases where the equal variance assumption was violated; when the nonparametric Mann-Whitney test was utilized. A p-value of 0.05 was considered significant.

[2] = tested on: CD163; test: Immunohistochemistry of implant capsule: CD163 anti-inflammatory macrophages; conditions: 75 mg/kg i.p. daily; explant at 2 weeks
Description: as §1
(§5) Mice were anesthetized with a standard ketamine/xylazine cocktail. […]
(§6) Explanted silicone pieces and surrounding capsules were fixed overnight in formaldehyde at 4° C. and transitioned to 70% ethanol. […] Primary antibody binding was detected by subsequent incubation with species appropriate biotinylated IgG (Vector Laboratories, CA, USA), followed by streptavidin-horse radish peroxidase (Vector Laboratories, CA, USA) and chromogenic development with 3,3-diaminobenzidine (Vector Laboratories, CA, USA). […] Slides were imaged on a Zeiss Axio Observer Z1 inverted microscope (Zeiss, Germany) and quantified using ImageJ (NIH, USA). […]
(§7) All statistical analysis was performed in Prism 8.0 (GraphPad, San Diego, CA, USA). Data was evaluated for outliers using the Grubb's test. […]

[3] = tested on: Alpha smooth muscle actin (αSMA); test: Immunohistochemistry of implant capsule: αSMA myofibroblasts; conditions: 75 mg/kg i.p. daily; explant at 2 weeks
Description: as §1, §5, §6, §7

[4] = tested on: estrogen receptor β (ER-β); test: Immunohistochemistry of implant capsule: ER-β; conditions: 75 mg/kg i.p. daily; explant at 2 weeks
Description: as §1, §5, §6, §7

[5] = tested on: Estrogen receptor α (ER-α); test: Immunohistochemistry of implant capsule: ER-α; conditions: 75 mg/kg i.p. daily; explant at 2 weeks
Description: as §1, §5, §6, §7

[6] = tested on: CD31; test: Immunohistochemistry of implant capsule: CD31 neovascularization; conditions: 75 mg/kg i.p. daily; explant at 2 weeks
Description: as §1, §5, §6, §7

[7] = tested on: Ki-67; test: Immunohistochemistry of implant capsule: Ki-67 cellular proliferation; conditions: 75 mg/kg i.p. daily; explant at 2 weeks
Description: as §1, §5, §6, §7

[8] = tested on: CD68; test: Immunohistochemistry of implant capsule: CD68 macrophage infiltration; conditions: 75 mg/kg i.p. daily; explant at 2 weeks
Description: as §1, §5, §6, §7

[9] = tested on: iNOS; test: Immunohistochemistry of implant capsule: iNOS pro-inflammatory macrophages; conditions: 75 mg/kg i.p. daily; explant at 2 weeks
Description: as §1, §5, §6, §7

[10] = Mouse body weight during tamoxifen treatment in silicone implant model; conditions: 75 mg/kg tamoxifen citrate i.p. daily
Description: as §1, §2, §3, §4

[11] = Picro-Sirius Red, 75 mg/kg i.p. daily, explant at 2 weeks

Structure (SMILES): CC/C(=C(\c1ccccc1)c1ccc(OCCN(C)C)cc1)c1ccccc1 [tamoxifen]
- cellularity of the capsules ([1]; 75 mg/kg i.p. daily, explant at 2 weeks): 3624±608 cells/mm^2
- capsule thickness ([1]; 75 mg/kg tamoxifen citrate i.p. daily, explant 2 weeks after implantation): 132±49 μm
- area percent of collagen [1, 11]: 36.2±3.1%
- total collagen surrounding the implants [1, 11]: 43598±10044 μm^2
- reduction in capsule thickness ([1]; tamoxifen-treated vs control, explant at 2 weeks): 59%
- cellular fraction of CD163 [2]: 29.1±8.4%
- total number of cells with positivity for CD163 [2]: 94.1±45.9 cells/mm
- linear density of αSMA+ cells [3]: 295±121 cells/mm
- percentage of total cells αSMA+ [3]: 47.9±9.5%
- ER-β expression, cellular fraction [4]: 36.8±7.5%
- ER-β total cells/mm [4]: 106.2±69.2 cells/mm
- ER-α expression as a fraction of total cells [5]: 31.0±6.3%
- ER-α total cells/mm of capsular tissue [5]: 107.0±39.8 cells/mm
- CD31+ vessels per mm^2 [6]: 106.3±51.8 vessels/mm^2
- total CD31+ vessels [6]: 15.9±9.7 vessels/mm
- Ki-67+ cells/mm [7]: 324±125 cells/mm
- cellular fraction of Ki-67+ cells [7]: 62.4±16.9%
- cellular fraction of CD68 [8]: 55.9±16.0%
- linear density of CD68+ cells [8]: 303.3±136.5 cells/mm
- cellular fraction of iNOS [9]: 60.6±12.6%
- total number of cells with positivity for iNOS [9]: 290.6±104.2 cells/mm
- body weight at the date of surgery ([10]; one week after start of injections): 16.2±1.6 gram body weight
- body weight at the start of the injection period ([10]; start of injections, 1 week before surgery): 17.6±1.2 gram body weight
- body weight at the two-week explant date ([10]; two weeks after implantation): 16.6±1.0 gram body weight
